Data published in patent US20240190892A1, “PLASMA KALLIKREIN INHIBITORS” (Merck Sharp & Dohme LLC, priority 2021, published 2024).

Legend:
[1] = molecular target: Human plasma kallikrein (Homo sapiens (Human), UniProt P03952); test: Plasma Kallikrein Assay; format: biochemical; conditions: purified Human plasma kallikrein 0.5 nM, substrate Acetyl-K-P-R-AFC, pH 7.4; read-out: PKal IC50
Description: (§1) The effectiveness of a compound of the present invention as an inhibitor of plasma kallikrein can be determined using a relevant purified serine protease, and an appropriate synthetic substrate. The rate of hydrolysis of the chromogenic or fluorogenic substrate by the relevant serine protease was measured both in the absence and presence of compounds of the present invention. Assays were conducted at rt or at 37° C. […] A decrease in the rate of fluorescence change in the presence of inhibitor is indicative of enzyme inhibition. Such methods are known to one skilled in the art. The results of this assay are expressed as the half-maximal inhibitory concentrations (IC50), or the inhibitory constant, Ki.
Plasma kallikrein determinations were made in 50 mM HEPES buffer at pH 7.4 containing 150 mM NaCl, 5 mM CaCl2, and 0.1% PEG 8000 (polyethylene glycol; Fisher Scientific). Determinations were made using purified Human plasma kallikrein at a final concentration of 0.5 nM (Enzyme Research Laboratories) and the synthetic substrate, Acetyl-K-P-R-AFC (Sigma #C6608) at a concentration of […].
Activity assays were performed by diluting a stock solution of substrate at least tenfold to a final concentration ≤0.2 Km into a solution containing enzyme or enzyme equilibrated with inhibitor. Times required to achieve equilibration between enzyme and inhibitor were determined in control experiments. The reactions were performed under linear progress curve conditions and fluorescence increase measured at 405 Ex/510 Em nm. Values were converted to percent inhibition of the control reaction (after subtracting 100% Inhibition value). IC50 was determined by inflection point from a four parameter logistic curve fit. Ki was calculated using the Cheng Prusoff equation, Ki=IC50/(1+[S]/Km)).

[2] = molecular target: Coagulation factor XIa (Homo sapiens (Human), UniProt P03951); test: Factor XIa Assay; format: biochemical; conditions: human factor XIa 0.04 nM, substrate GPR-AFC, 30 min pre-incubation at 25° C., pH 7.4; read-out: FXIa IC50
Description: as §1, with “Coagulation factor XIa” for “plasma kallikrein”
Compounds were pre-incubated for 30 min at 25° C. with human (0.04 nM) factor XIa in 50 mM HEPES buffer with 150 mM sodium chloride, 5 mM calcium chloride, 0.1% PEG 8000, pH 7.4. factor XIa enzymatic activity was determined by addition of the substrate glycine-proline-arginine-7-amido-4-trifluoromethylcoumarin (GPR-AFC) and measurement of the fluorescence at 400/505 nm after a 60 min incubation at 25° C. The % inhibition for each data point was calculated from the data and analyzed using the log (inhibitor) vs. response four parameters equation to determine the half-maximal inhibitory concentrations (IC50). The IC50 were converted to equilibrium inhibitory constants (Ki) using the Cheng-Prusoff equation.

Human plasma kallikrein, sequence (P03952 391-638 limits assumed): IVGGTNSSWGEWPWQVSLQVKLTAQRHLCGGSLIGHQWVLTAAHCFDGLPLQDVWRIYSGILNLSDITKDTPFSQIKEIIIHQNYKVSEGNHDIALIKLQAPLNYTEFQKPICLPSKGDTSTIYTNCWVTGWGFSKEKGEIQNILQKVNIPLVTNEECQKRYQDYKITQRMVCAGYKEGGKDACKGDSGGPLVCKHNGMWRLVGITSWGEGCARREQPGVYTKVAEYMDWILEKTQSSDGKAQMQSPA
Human plasma kallikrein, sequence (P03952 20-390 partner limits assumed): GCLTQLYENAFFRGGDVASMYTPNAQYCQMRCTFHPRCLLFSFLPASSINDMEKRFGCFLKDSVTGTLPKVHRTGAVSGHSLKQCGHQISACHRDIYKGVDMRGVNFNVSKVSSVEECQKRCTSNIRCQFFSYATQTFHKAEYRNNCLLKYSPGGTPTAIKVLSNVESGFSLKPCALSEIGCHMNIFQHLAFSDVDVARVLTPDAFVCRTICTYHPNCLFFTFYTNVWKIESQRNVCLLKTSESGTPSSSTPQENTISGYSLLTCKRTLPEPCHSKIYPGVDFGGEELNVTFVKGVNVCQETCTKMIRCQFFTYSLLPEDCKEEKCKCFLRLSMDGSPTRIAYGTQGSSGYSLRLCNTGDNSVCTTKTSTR
Coagulation factor XIa, sequence (P03951 388-625 limits assumed): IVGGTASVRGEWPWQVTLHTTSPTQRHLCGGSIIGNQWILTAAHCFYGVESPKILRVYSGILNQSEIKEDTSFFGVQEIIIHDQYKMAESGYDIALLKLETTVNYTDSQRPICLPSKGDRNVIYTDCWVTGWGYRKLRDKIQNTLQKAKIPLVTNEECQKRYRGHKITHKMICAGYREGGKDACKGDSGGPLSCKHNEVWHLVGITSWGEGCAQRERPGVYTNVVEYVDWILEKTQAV
Coagulation factor XIa, sequence (P03951 19-387 partner limits assumed): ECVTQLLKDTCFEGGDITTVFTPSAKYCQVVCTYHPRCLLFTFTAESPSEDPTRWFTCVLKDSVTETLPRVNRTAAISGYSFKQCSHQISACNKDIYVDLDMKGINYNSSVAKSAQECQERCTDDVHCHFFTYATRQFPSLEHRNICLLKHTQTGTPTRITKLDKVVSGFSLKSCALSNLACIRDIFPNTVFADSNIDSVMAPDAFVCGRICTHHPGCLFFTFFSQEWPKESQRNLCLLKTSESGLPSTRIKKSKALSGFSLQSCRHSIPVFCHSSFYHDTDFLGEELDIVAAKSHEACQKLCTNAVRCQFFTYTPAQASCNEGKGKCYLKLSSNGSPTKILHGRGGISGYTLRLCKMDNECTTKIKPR

| IC50 [1] | IC50 [2] | SMILES |
| --- | --- | --- |
| 0.0437 µM | 10 µM | O=C1Nc2ccc(Cl)c(F)c2[C@]2(CCN(c3cncc(C(=O)NCc4ccc(N5CC(O)(C(F)(F)F)C5)nc4)n3)C2)O1 [Example 36, (S)-6-(6-Chloro-5-fluoro-2-oxo-1,2-dihydrospiro[benzo[d][1,3]oxazine-4,3′-pyrrolidin]-1′-yl)-N-((6-(3-hydroxy-3-(trifluoromethyl)azetidin-1-yl)pyridin-3-yl)methyl)pyrazine-2-carboxamide] |
| 0.0444 µM | 10 µM | O=C1Nc2ccc(Cl)c(F)c2[C@]2(CCN(c3cncc(C(=O)NCc4ccc(N5CCC5)nc4)n3)C2)O1 [Example 37, (S)-N-((6-(Azetidin-1-yl)pyridin-3-yl)methyl)-6-(6-chloro-5-fluoro-2-oxo-1,2dihydrospiro[benzo[d][1,3]oxazine-4,3′-pyrrolidin]-1′-yl)pyrazine-2-carboxamide] |
| 0.0358 µM | 10 µM | O=C1Nc2ccc(Cl)c(F)c2[C@]2(CCN(c3cncc(C(=O)NCc4ccc(N5CC[C@H](F)C5)nc4)n3)C2)O1 [Example 38, (S)-6-(6-Chloro-5-fluoro-2-oxo-1,2-dihydrospiro[benzo[d][1,3]oxazine-4,3′-pyrrolidin]-1′-yl)-N-((6-((S)-3-fluoropyrrolidin-1-yl)pyridin-3-yl)methyl)pyrazine-2-carboxamide] |
| 0.0258 µM | 10 µM | O=C1Nc2ccc(Cl)c(F)c2[C@]2(CCN(c3cncc(C(=O)NCc4ccc(N5CC[C@@H](F)C5)nc4)n3)C2)O1 [Example 39, (S)-6-(6-Chloro-5-fluoro-2-oxo-1,2-dihydrospiro[benzo[d][1,3]oxazine-4,3′-pyrrolidin]-1′-yl)-N-((6-((R)-3-fluoropyrrolidin-1-yl)pyridin-3-yl)methyl)pyrazine-2-carboxamide] |
| 0.0186 µM | 10 µM | O=C1Nc2ccc(Cl)c(F)c2[C@]2(CCN(c3cncc(C(=O)NCc4ccc(N5CC6CC6C5)nc4)n3)C2)O1 (stereo partly drawn) [Example 40, N-((6-(3-Azabicyclo[3.1.0]hexan-3-yl)pyridin-3-yl)methyl)-6-((S)-6-chloro-5-fluoro-2-oxo-1,2-dihydrospiro[benzo[d][1,3]oxazine-4,3′-pyrrolidin]-1′-yl)pyrazine-2-carboxamide] |
| 0.0354 µM | 10 µM | O=C1Nc2ccc(Cl)c(F)c2[C@]2(CCN(c3cncc(C(=O)NCc4ccc(N5CCCCC5)nc4)n3)C2)O1 [Example 41, (S)-6-(6-Chloro-5-fluoro-2-oxo-1,2-dihydrospiro[benzo[d][1,3]oxazine-4,3′-pyrrolidin]-1′-yl)-N-((6-(piperidin-1-yl)pyridin-3-yl)methyl)pyrazine-2-carboxamide] |
| 0.0118 µM | 10 µM | O=C1Nc2ccc(Cl)c(F)c2[C@]2(CCN(c3cncc(C(=O)NCc4ccc(N5CCOCC5)nc4)n3)C2)O1 [Example 42, (S)-6-(6-Chloro-5-fluoro-2-oxo-1,2-dihydrospiro[benzo[d][1,3]oxazine-4,3′-pyrrolidin]-1′-yl)-N-((6-morpholinopyridin-3-yl)methyl)pyrazine-2-carboxamide] |
| 0.0017 µM | 10 µM | CN1CCN(c2ccc(CNC(=O)c3cncc(N4CC[C@]5(C4)OC(=O)Nc4ccc(Cl)c(F)c45)n3)cn2)CC1 [Example 43, (S)-6-(6-Chloro-5-fluoro-2-oxo-1,2-dihydrospiro[benzo[d][1,3]oxazine-4,3′-pyrrolidin]-1′-yl)-N-((6-(4-methylpiperazin-1-yl)pyridin-3-yl)methyl)pyrazine-2-carboxamide] |
| 0.0583 µM | 7.66 µM | CCC(F)(F)NCc1ccc(CNC(=O)c2cnnc(N3CC[C@]4(C3)OC(=O)Nc3ccc(Cl)c(F)c34)c2)cc1 [Example 44, (S)-6-(6-Chloro-5-fluoro-2-oxo-1,2-dihydrospiro[benzo[d][1,3]oxazine-4,3′-pyrrolidin]-1′-yl)-N-(4-(((1,1-difluoropropyl)amino)methyl)benzyl)pyridazine-4-carboxamide] |
| 0.0158 µM | 10 µM | CCC(C)NCc1ccc(CNC(=O)c2cnnc(N3CC[C@]4(C3)OC(=O)Nc3ccc(Cl)c(F)c34)c2)cc1 (stereo partly drawn) [Example 45, N-(4-((sec-Butylamino)methyl)benzyl)-6-((S)-6-chloro-5-fluoro-2-oxo-1,2-dihydrospiro[benzo[d][1,3]oxazine-4,3′-pyrrolidin]-1′-yl)pyridazine-4-carboxamide] |
| 0.038 µM | 10 µM | CCC(NCc1ccc(CNC(=O)c2cnnc(N3CC[C@]4(C3)OC(=O)Nc3ccc(Cl)c(F)c34)c2)cc1)C(F)(F)F (stereo partly drawn) [Example 46, (S)-6-(6-Chloro-5-fluoro-2-oxo-1,2-dihydrospiro[benzo[d][1,3]oxazine-4,3′-pyrrolidin]-1′-yl)-N-(4-(((1,1,1-trifluorobutan-2-yl)amino)methyl)benzyl) pyridazine-4-carboxamide] |
| 0.0138 µM | 10 µM | O=C1Nc2ccc(Cl)c(F)c2[C@]2(CCN(c3cc(C(=O)NCc4ccc(CN5CC(F)C5)cc4)cnn3)C2)O1 [Example 47, (S)-6-(6-chloro-5-fluoro-2-oxo-1,2-dihydrospiro[benzo[d][1,3]oxazine-4,3′-pyrrolidin]-1′-yl)-N-(4-((3-fluoroazetidin-1-yl)methyl)benzyl)pyridazine-4-carboxamide] |
| 0.0059 µM | 10 µM | CC(C)N(C)Cc1ccc(CNC(=O)c2cnnc(N3CC[C@]4(C3)OC(=O)Nc3ccc(Cl)c(F)c34)c2)cc1 [Example 48, (S)-6-(6-Chloro-5-fluoro-2-oxo-1,2-dihydrospiro[benzo[d][1,3]oxazine-4,3′-pyrrolidin]-1′-yl)-N-(4-((isopropyl(methyl)amino)methyl)benzyl)pyridazine-4-carboxamide] |
| 0.0089 µM | 10 µM | N#CCCN(Cc1ccc(CNC(=O)c2cnnc(N3CC[C@]4(C3)OC(=O)Nc3ccc(Cl)c(F)c34)c2)cc1)C1CC1 [Example 49, (S)-6-(6-Chloro-5-fluoro-2-oxo-1,2-dihydrospiro[benzo[d][1,3]oxazine-4,3′-pyrrolidin]-1′-yl)-N-(4-(((2-cyanoethyl)(cyclopropyl)amino)methyl)benzyl)pyridazine-4-carboxamide] |
| 0.0266 µM | 10 µM | N#CC1(F)CN(Cc2ccc(CNC(=O)c3cnnc(N4CC[C@]5(C4)OC(=O)Nc4ccc(Cl)c(F)c45)c3)cc2)C1 [Example 50, (S)-6-(6-Chloro-5-fluoro-2-oxo-1,2-dihydrospiro[benzo[d][1,3]oxazine-4,3′-pyrrolidin]-1′-yl)-N-(4-((3-cyano-3-fluoroazetidin-1-yl)methyl)benzyl)pyridazine-4-carboxamide] |
| 0.0459 µM | 10 µM | O=C1Nc2ccc(Cl)c(F)c2[C@]2(CCN(c3cncc4c3CCN(Cc3ccc(Cn5ccccc5=O)cc3)C4)C2)O1 [Example 51, (S)-6-Chloro-5-fluoro-1′-(7-(4-((2-oxopyridin-1(2H)-yl)methyl)benzyl)-5,6,7,8-tetrahydro-2,7-naphthyridin-4-yl)spiro[benzo[d][1,3]oxazine-4,3′-pyrrolidin]-2(1H)-one] |
| 0.019 µM | 10 µM | O=C(Cc1ccc(Cn2ccccc2=O)cc1)Nc1cncc(N2CC[C@]3(C2)OC(=O)Nc2ccc(Cl)c(F)c23)c1 [Example 52, (S)-N-(5-(6-Chloro-5-fluoro-2-oxo-1,2-dihydrospiro[benzo[d][1,3]oxazine-4,3′-pyrrolidin]-1′-yl)pyridin-3-yl)-2-(4-((2-oxopyridin-1(2H)-yl)methyl)phenyl)acetamide] |
